Earlier results in patent US20030009042A1, “Method for making hydroxy-25-ene-vitamin D compounds” (Bone Care International, Inc., priority 1998, published 2003).
Where two headings read alike, the source gives them in different places.

Columns and labels:
[1] = oral, 0.5 μg/day, postmenopausal women
[2] = not given; remark: listed apart in the source

Row | SMILES | effects on bone mass or mineral content (dosage levels below 0.5 μg/day) | efficacy in preventing or restoring loss of bone mass or bone mineral content (dosage ranges taught in the '596 Patent) | intestinal calcium absorption and calcium balance [1] | efficacy (bone mass) (1 μg/day, Japan, population with low calcium intake) | efficacy in increasing bone mass (two μg/day, patients exhibiting senile osteoporosis) | toxicity, percentage of the patients ([2]; 1 μg/day) | toxicity, percentage of the patients ([2]; 2 μg/day)
1 | C=C1/C(=C\C=C2/CCC[C@]3(C)[C@@H]([C@H](C)CCCC(C)(C)O)CC[C@@H]23)C[C@@H](O)C[C@@H]1O [1α,25-dihydroxyvitamin D3] | no effects are observed | at best, modest efficacy | improved intestinal calcium absorption as well as calcium balance |  |  |  | 
2 | C=C1/C(=C\C=C2/CCC[C@]3(C)[C@@H]([C@H](C)CCCC(C)C)CC[C@@H]23)C[C@@H](O)C[C@@H]1O [1α-hydroxyvitamin D3] |  |  |  | efficacy is found | found to have efficacy in increasing bone mass | approximately 20% | approximately 67%
